# How the values were obtained:
# [1] = tested on: Human breast cancer cells MCF-7; experiment: Cell anti-proliferation assay (MTT), MCF-7; assay type: cell-based; settings: Homo sapiens, MCF7, 120 h, MCF-7 cells, incubated for 5 days
# Method: (§1) Human breast cancer cells MCF-7, human ovarian cancer cells A2780, human mantle cell lymphoma cells JEKO-1. DMEM medium (Bio-Channel), DMSO (dimethyl sulfoxide), MTT (thiazolyl blue), 0.25% EDTA-Trypsin (trypsin digestive solution), 1×PBS (phosphate buffered saline, pH 7.2), 96-well plate (Corning), fetal bovine serum (FBS), 10,000 U/mL penicillin-G/streptomycin, high-speed refrigerated centrifuge (EPPENDORF 5810R), and microplate reader (Tecan Spark).
# (§2) • A) Tumor cells were cultured in DMEM (high glucose, containing 10% FBS and 100 U/mL penicillin-G/streptomycin) at 37 °C, 5% CO2 and saturated humidity until 80-90% confluence. • B) The medium in the 10 cm culture dish was removed. • C) Cells were rinsed once with 10 mL of 1×PBS. • D) 4 mL of 0.25% EDTA-Trypsin was added, and the cells were digested in a 37 °C, 5% CO2 incubator for 5 minutes. The mixture was transferred to a 15 mL centrifuge tube, centrifuged at 200 g for 5 minutes, and the supernatant was discarded to obtain cell pellet. • E) The cells were resuspended in 4 mL of DMEM medium, counted, and adjusted to 50,000 cells/mL. • F) 100 µL of cell suspension was added to each well of a 96-well plate, and the plate was incubated overnight at 37 °C in a 5% CO2 incubator.
# (§3) • A) Gradient dilution solutions of the test compounds were prepared: the test compound was prepared into a 1 mM stock solution. Then 1.5 µL of the stock solution was dissolved in 1.5 mL of DMSO-free medium, followed by 3-fold serial gradient dilution with medium containing 0.1% DMSO to give 9 concentrations.
# (§4) • A) The cell culture plate was taken out, and 10 µL of 5 mg/mL MTT was added in a biological safety cabinet; • B) The plate was returned to the incubator and incubated for another 3 hours; • C) The cell culture plate was taken out and the medium was removed, 100 µL of isopropanol (containing 0.4 mM HCl, 0.1% NP-40) was added, and the plate was shaken at room temperature for 30 minutes; • D) The absorbance at 570 nm was measured using a TECAN microplate reader.
# [2] = tested on: human mantle cell lymphoma cells JEKO-1; experiment: Cell anti-proliferation assay (MTT), JEKO-1; assay type: cell-based; settings: Homo sapiens, 120 h, JEKO-1 cells, incubated for 5 days
# Method: as §1, §2, §3, §4
# CDK4/CycD1 = CDK4/CycD1 (Homo sapiens, UniProt P11802); experiment: Kinase activity assay (MSA, EZ Reader) against CDK4
# [3] = tested on: human ovarian cancer cells A2780; experiment: Cell anti-proliferation assay (MTT), A2780; assay type: cell-based; settings: Homo sapiens, 120 h, incubated for 5 days
# Method: as §1, §2, §3, §4
# CDK6/CyclinD3 = molecular target: T1, CDK6/CyclinD3 (Homo sapiens, UniProt Q00534); experiment: Kinase activity assay (MSA, EZ Reader) against CDK6; assay type: biochemical; settings: CDK6/CyclinD3 5.00 nM, ATP 350 µM, FL-Peptide34, 10mM MgCl2
# T1 construct: purchased Carna 04-107
# [4] = Preclinical pharmacokinetic study in rats; assay type: in vivo, Sprague-Dawley (SD) rats; settings: male SD rats, oral gavage (p.o.) 10 mg/kg, plasma
# Method: Healthy adult Sprague-Dawley (SD) rats, male, 6-8 weeks old, weighing 200-300 g. EDTA-Na2 anticoagulant. Analytical balance, animal weighing scale, magnetic stirrer, refrigerated centrifuge, single-channel manual pipette, etc. About 10 mg of the test sample was precisely weighed, dissolved in a calculated volume of 5% DMSO, followed by addition of 10% solutol HS-15 and 85% normal saline. The mixture was sonicated and vortexed to homogeneity to obtain a solution with a concentration of 1 mg/mL. The solution was freshly prepared before use. Animals were housed in rat cages and fasted overnight (no less than 10 h) before the test, with free access to water. On the day of the test, animals were weighed and marked on the tail. Blank blood samples were collected before administration. The blood was collected via tail vein. • Route of administration: oral gavage (p.o.) • Dose: 10 mg/kg • Dosing volume: 10 mL/kg • Procedure: The rat was held upright with the left hand wearing bite-resistant glove. A 16-gauge gavage needle was inserted through the mouth into the esophagus. The needle was advanced gently without obvious resistance, and the drug solution was injected into the stomach. Whole blood (0.1 mL) were collected from each test animal before administration and at 0.5 […], and 24 h after administration into EDTA-Na2 anticoagulant tubes. The tubes were inverted 3-4 times for mixing, then centrifuged at 10,000 g for 5 min at 4 °C to separate plasma. Plasma samples were stored at -80 °C until analysis. Blood was collected via tail vein. […] The mixture was vortexed for 2 min and centrifuged at 10,000 g for 10 min at 4 °C. Processing of unknown plasma samples: 25 μL of drug-containing rat plasma was transferred, followed by addition of 25 μL of methanol and 200 μL of internal standard solution. The mixture was vortexed for 2 min and centrifuged at 10,000 g for 10 min at 4 °C. The supernatant was collected for LC-MS/MS analysis. A quantitative method for the determination of the test compound was established using a Shimadzu liquid chromatography system coupled with Triple Quad^TM 6500+ AB mass spectrometer. The concentration of the parent drug in plasma was determined. The plasma concentration-time curve was plotted, and the main pharmacokinetic parameters were calculated using a non-compartmental model in winnonlin Phoenix software.
# CDK4/CycD1, sequence (P11802 whole entry): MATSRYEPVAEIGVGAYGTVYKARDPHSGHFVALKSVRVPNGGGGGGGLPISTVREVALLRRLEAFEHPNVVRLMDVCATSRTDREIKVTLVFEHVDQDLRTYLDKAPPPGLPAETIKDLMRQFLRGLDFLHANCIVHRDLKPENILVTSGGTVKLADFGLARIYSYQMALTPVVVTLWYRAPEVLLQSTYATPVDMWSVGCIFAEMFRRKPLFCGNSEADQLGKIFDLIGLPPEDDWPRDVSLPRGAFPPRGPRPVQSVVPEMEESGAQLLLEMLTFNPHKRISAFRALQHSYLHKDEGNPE
# T1 sequence (Q00534 whole entry): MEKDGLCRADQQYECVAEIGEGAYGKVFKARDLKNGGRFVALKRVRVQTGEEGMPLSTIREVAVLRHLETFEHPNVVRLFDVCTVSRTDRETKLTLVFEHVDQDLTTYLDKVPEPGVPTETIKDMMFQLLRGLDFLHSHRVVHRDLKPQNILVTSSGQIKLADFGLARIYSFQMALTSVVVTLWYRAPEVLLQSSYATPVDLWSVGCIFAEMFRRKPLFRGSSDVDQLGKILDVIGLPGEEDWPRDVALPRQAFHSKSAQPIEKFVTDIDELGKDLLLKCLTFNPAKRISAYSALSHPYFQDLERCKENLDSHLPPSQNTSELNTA
# T1 sequence (P30281 whole entry partner): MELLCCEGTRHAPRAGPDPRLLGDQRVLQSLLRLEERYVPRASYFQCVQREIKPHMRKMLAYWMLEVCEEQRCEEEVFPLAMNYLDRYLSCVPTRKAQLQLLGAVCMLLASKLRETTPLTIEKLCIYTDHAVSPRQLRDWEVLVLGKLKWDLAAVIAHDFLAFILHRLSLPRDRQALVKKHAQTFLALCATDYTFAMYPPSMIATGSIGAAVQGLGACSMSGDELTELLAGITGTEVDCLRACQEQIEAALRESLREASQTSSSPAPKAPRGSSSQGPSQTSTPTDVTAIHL
SMILES,IC50 [1],IC50 [2],IC50 (CDK4/CycD1),IC50 [3],IC50 (CDK6/CyclinD3),"AUC(0-t) ([4]; Sprague-Dawley, rat)","Cmax ([4]; Sprague-Dawley, rat)","Tmax ([4]; Sprague-Dawley, rat)",HL_ [4]
"COC(=O)N(C)c1nc2c(F)cc(-c3nc(N[C@@H]4CCOC[C@H]4O)ncc3Cl)cc2n1C(C)C [TB-8, methyl (6-(5-chloro-2-(((3S,4R)-3-hydroxytetrahydro-2H-pyran-4-yl)amino)pyrimidin-4-yl)-4-fluoro-1-isopropyl-1H-benzo[d]imidazol-2-yl)(methyl)carbamate]",500 to 2000 nM,≤ 500 nM,18.8 nM,≤ 500 nM,334 nM,,,,
CC(C)n1c(N2CCCOC2=O)nc2c(F)cc(-c3nc(NC4CCN(S(C)(=O)=O)CC4)ncc3Cl)cc21 [TB-142],,,69.5 nM,,361 nM,,,,
C[C@@H]1C[C@H](C)n2c(nc3c(F)cc(-c4nc(N[C@@H]5CCOC[C@H]5O)ncc4Cl)cc32)N1C [TB-154],≤ 500 nM,≤ 500 nM,3 nM,≤ 500 nM,75.8 nM,,,,
C[C@H]1CCN(C)c2nc3c(F)cc(-c4nc(N[C@@H]5CCN(S(C)(=O)=O)C[C@H]5O)ncc4Cl)cc3n21 [TB-96],,,2.1 nM,,20.3 nM,,,,
"CCS(=O)(=O)N1CCC(Nc2ncc(Cl)c(-c3cc(F)c4nc5n(c4c3)CCCN5C)n2)CC1 [TB-143, 5-chloro-N-(1-(ethylsulfonyl)piperidin-4-yl)-4-(9-fluoro-1-methyl-1,2,3,4-tetrahydrobenzo[4,5]imidazo[1,2-a]pyrimidin-7-yl)pyrimidin-2-amine]",≤ 500 nM,≤ 500 nM,,≤ 500 nM,58.3 nM,,,,
"C[C@@H]1CCN(C)c2nc3c(F)cc(-c4nc(N[C@@H]5CCOC[C@H]5O)ncc4Cl)cc3n21 [TB-91, (3S,4R)-4-((5-chloro-4-((R)-9-fluoro-1,4-dimethyl-1,2,3,4-tetrahydrobenzo[4,5]imidazo[1,2-a]pyrimidin-7-yl)pyrimidin-2-yl)amino)tetrahydro-2H-pyran-3-ol]",≤ 500 nM,≤ 500 nM,,≤ 500 nM,68.4 nM,,,,
"CC1CCN(C)c2nc3c(F)cc(-c4nc(N[C@@H]5CCOC[C@H]5O)ncc4Cl)cc3n21 (mixture of isomers) [TB-44, (3S,4R)-4-((5-chloro-4-(9-fluoro-1,4-dimethyl-1,2,3,4-tetrahydrobenzo[4,5]imidazo[1,2-a]pyrimidin-7-yl)pyrimidin-2-yl)amino)tetrahydro-2H-pyran-3-ol]",≤ 500 nM,≤ 500 nM,,≤ 500 nM,90.2 nM,,,,
CC(C)n1c(N(C)C)nc2c(F)cc(-c3nc(N[C@H]4CC[C@@H](NS(C)(=O)=O)CC4)ncc3Cl)cc21 [TB-4],,,27.1 nM,,,,,,
CC1(C)Cn2c(nc3c(F)cc(-c4nc(N[C@@H]5CCOC[C@H]5O)ncc4Cl)cc32)S(=O)(=O)C1 [TB-148],,,71.4 nM,,222 nM,,,,
CC(C)n1c(N2CCCC2=O)nc2c(F)cc(-c3nc(N[C@@H]4CCOC[C@H]4O)ncc3Cl)cc21 [TB-23],,,185 nM,,,,,,
"CC(C)n1c(N2CCOC2=O)nc2c(F)cc(-c3nc(Nc4ccc(S(C)(=O)=O)cc4)ncc3Cl)cc21 [TB-54, 3-(6-(5-chloro-2-((4-(methylsulfonyl)phenyl)amino)pyrimidin-4-yl)-4-fluoro-1-isopropyl-1H-benzo[d]imidazol-2-yl)oxazolidin-2-one]",,,101 nM,,411 nM,,,,
CN1CCCn2c1nc1c(F)cc(-c3nc(Nc4ccncc4)ncc3Cl)cc12 [TB-90],500 to 2000 nM,≤ 500 nM,,≤ 500 nM,95.2 nM,,,,
"CNS(=O)(=O)c1ccc(Nc2ncc(Cl)c(-c3cc(F)c4nc(N(C)C)n(C(C)C)c4c3)n2)cc1 [TB-20, 4-((5-chloro-4-(2-(dimethylamino)-4-fluoro-1-isopropyl-1H-benzo[d]imidazol-6-yl)pyrimidin-2-yl)amino)-N-methylbenzenesulfonamide]",,,44.6 nM,,141 nM,,,,
"CN1CCn2c1nc1c(F)cc(-c3nc(NC4CCN(S(C)(=O)=O)CC4)ncc3Cl)cc12 [TB-52, 5-chloro-4-(8-fluoro-1-methyl-2,3-dihydro-1H-benzo[d]imidazo[1,2-a]imidazol-6-yl)-N-(1-(methylsulfonyl)piperidin-4-yl)pyrimidin-2-amine]",≤ 500 nM,≤ 500 nM,,≤ 500 nM,40.6 nM,,,,
"CN1C(=O)CCn2c1nc1c(F)cc(-c3nc(N[C@@H]4CCOC[C@H]4O)ncc3Cl)cc12 [TB-46, 7-(5-chloro-2-(((3S,4R)-3-hydroxytetra hydro-2H-pyran-4-yl)amino)pyrimidin-4-yl)-9-fluoro-1-methyl-3,4-dihydrobenzo[4,5]imidazo[1,2-a]pyrimidin-2(1H)-one]",≤ 500 nM,≤ 500 nM,,≤ 500 nM,244 nM,,,,
CN1CCCn2c1nc1c(F)cc(-c3nc(N[C@@H]4CCOC[C@H]4O)ncc3Cl)cc12 [TB-40],≤ 500 nM,≤ 500 nM,,≤ 500 nM,229 nM,,,,
"C[C@H]1CCN(C)c2nc3c(F)cc(-c4nc(N[C@@H]5CCOC[C@H]5O)ncc4Cl)cc3n21 [TB-92, (3S,4R)-4-((5-chloro-4-((S)-9-fluoro-1,4-dimethyl-1,2,3,4-tetrahydrobenzo[4,5]imidazo[1,2-a]pyrimidin-7-yl)pyrimidin-2-yl)amino)tetrahydro-2H-pyran-3-ol]",≤ 500 nM,≤ 500 nM,,≤ 500 nM,123 nM,5020 ng·h/mL,1940 ng/mL,30 min,1.21 h
"CN1CCCn2c1nc1c(F)cc(-c3nc(N[C@@H]4CCOC[C@H]4O)ncc3F)cc12 [TB-42, (3S,4R)-4-((5-fluoro-4-(9-fluoro-1-methyl-1,2,3,4-tetrahydrobenzo[4,5]imidazo[1,2-a]pyrimidin-7-yl)pyrimidin-2-yl)amino)tetrahydro-2H-pyran-3-ol]",≤ 500 nM,≤ 500 nM,,≤ 500 nM,195 nM,,,,
"CN1CCCn2c1nc1c(F)cc(-c3nc(NC4CCOCC4)ncc3Cl)cc12 [TB-132, 5-chloro-4-(9-fluoro-1-methyl-1,2,3,4-tetrahydrobenzo[4,5]imidazo[1,2-a]pyrimidin-7-yl)-N-(tetrahydro-2H-pyran-4-yl)pyrimidin-2-amine]",500 to 2000 nM,≤ 500 nM,,≤ 500 nM,246 nM,,,,
"CNS(=O)(=O)N1CCC(Nc2ncc(Cl)c(-c3cc(F)c4nc5n(c4c3)CCCN5C)n2)CC1 [TB-144, 4-((5-chloro-4-(9-fluoro-1-methyl-1,2,3,4-tetrahydrobenzo[4,5]imidazo[1,2-a]pyrimidin-7-yl)pyrimidin-2-yl)amino)-N-methylpiperidine-1-sulfonamide]",≤ 500 nM,≤ 500 nM,,≤ 500 nM,126 nM,,,,
CC(C)n1c(N2CCOC2=O)nc2c(F)cc(-c3ccnc(NC4CCN(S(C)(=O)=O)CC4)n3)cc21 [TB-94],,,44.4 nM,,458 nM,,,,

# Reference: patent EP4775575A1, “COMPOUND USED AS CDK4 KINASE INHIBITOR AND USE THEREOF” (TYK Medicines, Inc., priority 2023, dated 2025)
